{
  "source": "patent US20200306252A1",
  "about": "“COMPOSITION FOR PREVENTING AND/OR TREATING DEMENTIA” (priority 2019, published 2020)",
  "origin": "cited, not measured here",
  "key": {"patients with dementia": {"system": "patients with dementia", "conditions": "clinical experiments; curcumin alone"}, "β-amyloid": {"system": "β-amyloid", "conditions": "cellular experiments"}, "neural cells": {"system": "neural cells", "conditions": "cellular experiments"}},
  "data": [
    {"smiles": "COc1cc(/C=C/C(=O)CC(=O)/C=C/c2ccc(O)c(OC)c2)ccc1O", "note": "[curcumin]", "values": [
      {"measurement": "alleviation of the symptoms of patients with dementia", "setting": "patients with dementia", "result": "cannot effectively alleviate the symptoms"},
      {"measurement": "reducing β-amyloid aggregation", "setting": "β-amyloid", "result": "effective"},
      {"measurement": "protecting neural cells", "setting": "neural cells", "result": "effective"},
      {"measurement": "bioavailability", "result": "poor"}
    ]}
  ]
}
